Reference: BindingDB's records for doi:10.1016/j.bioorg.2017.03.012 (Alexandria University, 2017)

Experiments:
[1] = target: T1, Polyunsaturated fatty acid 5-lipoxygenase (Homo sapiens, UniProt P09917); experiment: In Vitro Lipoxygenase (LOX) Inhibitory Assay
T1 sequence (P09917 whole entry): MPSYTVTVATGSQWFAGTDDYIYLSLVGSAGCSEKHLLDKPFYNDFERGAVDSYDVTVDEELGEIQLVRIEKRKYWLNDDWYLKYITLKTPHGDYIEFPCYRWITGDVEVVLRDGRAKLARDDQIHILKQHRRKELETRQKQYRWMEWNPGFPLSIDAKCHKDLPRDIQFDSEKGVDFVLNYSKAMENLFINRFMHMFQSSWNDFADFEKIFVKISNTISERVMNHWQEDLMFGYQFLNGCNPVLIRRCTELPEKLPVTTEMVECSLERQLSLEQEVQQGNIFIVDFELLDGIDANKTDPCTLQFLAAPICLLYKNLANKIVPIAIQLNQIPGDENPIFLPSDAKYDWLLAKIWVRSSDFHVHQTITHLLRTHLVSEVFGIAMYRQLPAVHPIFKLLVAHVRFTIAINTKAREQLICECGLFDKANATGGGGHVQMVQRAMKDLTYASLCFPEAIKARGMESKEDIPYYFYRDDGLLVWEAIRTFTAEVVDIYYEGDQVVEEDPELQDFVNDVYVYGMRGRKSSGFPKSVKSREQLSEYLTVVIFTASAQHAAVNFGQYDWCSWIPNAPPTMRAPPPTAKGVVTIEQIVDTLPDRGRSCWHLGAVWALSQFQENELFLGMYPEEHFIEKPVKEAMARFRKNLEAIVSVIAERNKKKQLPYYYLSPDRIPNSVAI
Experimental: All the newly synthesized compounds were also evaluated in vitro for their ability to inhibit lipoxygenase enzyme. This was carried out using Abnova lipoxygenase inhibitor screening assay kit (Catalog No. (KA1329). Inhibitors were dissolved in DMSO and were added to the assay in a final volume of 10 μl before initiating with substrate. Three concentrations were prepared (25, 50 and 100 μM) and the concentration that produced 50% enzyme inhibition was determined according to manufacturer instructions [Plačkov et al., Free Radic. Biol. Med., 97:223-235].

[2] = target: T2, Prostaglandin G/H synthase 2 (Ovis aries, UniProt P79208); experiment: In Vitro COX-1 and COX-2 Inhibitory Assay
T2 sequence (P79208 whole entry): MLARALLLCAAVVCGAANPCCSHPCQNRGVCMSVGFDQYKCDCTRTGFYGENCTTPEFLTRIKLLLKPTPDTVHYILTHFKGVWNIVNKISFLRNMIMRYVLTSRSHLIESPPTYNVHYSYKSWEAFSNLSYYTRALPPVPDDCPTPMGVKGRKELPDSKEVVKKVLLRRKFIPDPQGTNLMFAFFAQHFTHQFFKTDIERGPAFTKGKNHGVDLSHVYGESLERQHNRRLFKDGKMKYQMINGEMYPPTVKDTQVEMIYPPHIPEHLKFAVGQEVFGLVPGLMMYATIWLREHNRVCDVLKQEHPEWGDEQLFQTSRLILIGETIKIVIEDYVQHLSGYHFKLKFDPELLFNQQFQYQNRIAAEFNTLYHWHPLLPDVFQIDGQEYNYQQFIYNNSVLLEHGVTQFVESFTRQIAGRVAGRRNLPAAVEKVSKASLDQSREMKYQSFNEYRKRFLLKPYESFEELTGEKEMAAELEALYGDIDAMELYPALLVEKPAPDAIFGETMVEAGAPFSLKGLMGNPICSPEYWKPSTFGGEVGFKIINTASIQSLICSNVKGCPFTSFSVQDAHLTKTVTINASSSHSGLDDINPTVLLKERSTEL

[3] = target: T3, Prostaglandin G/H synthase 1 (Ovis aries, UniProt P05979); experiment: In Vitro COX-1 and COX-2 Inhibitory Assay
T3 sequence (P05979 whole entry): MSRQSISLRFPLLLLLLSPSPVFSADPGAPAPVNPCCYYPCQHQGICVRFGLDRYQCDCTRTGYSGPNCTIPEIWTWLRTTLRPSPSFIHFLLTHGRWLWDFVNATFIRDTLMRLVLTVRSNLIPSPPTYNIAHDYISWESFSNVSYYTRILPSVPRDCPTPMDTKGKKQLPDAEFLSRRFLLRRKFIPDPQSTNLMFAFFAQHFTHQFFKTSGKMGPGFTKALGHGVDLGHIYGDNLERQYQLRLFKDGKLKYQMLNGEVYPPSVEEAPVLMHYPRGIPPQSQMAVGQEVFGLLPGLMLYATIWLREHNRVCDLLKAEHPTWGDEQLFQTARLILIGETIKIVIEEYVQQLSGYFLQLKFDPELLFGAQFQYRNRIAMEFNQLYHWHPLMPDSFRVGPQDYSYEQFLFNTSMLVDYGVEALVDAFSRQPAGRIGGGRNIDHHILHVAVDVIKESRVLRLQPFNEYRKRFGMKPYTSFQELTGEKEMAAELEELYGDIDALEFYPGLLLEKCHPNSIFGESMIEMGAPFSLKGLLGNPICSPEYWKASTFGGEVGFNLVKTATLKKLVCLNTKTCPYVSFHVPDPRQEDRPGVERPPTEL

## Cc1ccc(Cl)c(Nc2ccccc2C(=O)O)c1Cl
[1]
  IC50: 5.64 µM

## O=C(NN1C(=O)CSC1=S)c1sc2ccccc2c1Cl [3-Chloro-N-(4-oxo-2-thioxothiazolidin-3-yl)benzo[b]thiophene-2-carboxamide (4)]
[1]
  IC50: 6.87 µM
[2]
  IC50: 2.43 µM
[3]
  IC50: 8.7 µM

## COc1ccc(-c2nn(-c3ccccc3)cc2/C=C2\SC(=S)N(NC(=O)c3sc4ccccc4c3Cl)C2=O)cc1 [3-Chloro-N-(5-{[3-(4-methoxyphenyl)-1-phenyl-1H-pyrazol-4-yl]methylene}-4-oxo-2-thioxothiazolidin-3-yl)benzo[b]thiophene-2-carboxamide (5b)]
[1]
  IC50: 8.71 µM
[2]
  IC50: 2.61 µM
[3]
  IC50: 7.6 µM

## O=C1Nc2ccccc2/C1=C1\SC(=S)N(NC(=O)c2sc3ccccc3c2Cl)C1=O [3-Chloro-N-[4-oxo-5-(2-oxoindolin-3-ylidene)-2-thioxothiazolidin-3-yl]benzo[b]thiophene-2-carboxamide (5i)]
[1]
  IC50: 6.87 µM
[2]
  IC50: 1.56 µM
[3]
  IC50: 5.9 µM

## COc1ccc(/C=C2\SC(=S)N(NC(=O)c3sc4ccccc4c3Cl)C2=O)cc1OC [3-Chloro-N-[5-(3,4-dimethoxybenzylidene)-4-oxo-2-thioxothiazolidin-3-yl]benzo [b]thiophene-2-carboxamide (5h)]
[3]
  IC50: 3.4 µM

## O=C(NN1C(=O)/C(=C/c2ccc(Cl)cc2)SC1=S)c1sc2ccccc2c1Cl [3-Chloro-N-[5-(4-chlorobenzylidene)-4-oxo-2-thioxothiazolidin-3-yl]benzo[b]thiophene-2-carboxamide (5f)]
[1]
  IC50: 3.74 µM
[2]
  IC50: 1.23 µM
[3]
  IC50: 4.9 µM

## COc1cc(/C=C2\SC(=S)N(NC(=O)c3sc4ccccc4c3Cl)C2=O)ccc1O [3-Chloro-N-[5-(4-hydroxy-3-methoxybenzylidene)-4-oxo-2-thioxothiazolidin-3-yl]benzo [b]thiophene-2-carboxamide (5g)]
[1]
  IC50: 6.91 µM
[2]
  IC50: 4.22 µM
[3]
  IC50: 10.4 µM

## COc1ccc(/C=C2\SC(=S)N(NC(=O)c3sc4ccccc4c3Cl)C2=O)cc1 [3-Chloro-N-[5-(4-methoxybenzylidene)-4-oxo-2-thioxothiazolidin-3-yl]benzo[b]thiophene-2-carboxamide (5e)]
[1]
  IC50: 4.97 µM
[2]
  IC50: 1.89 µM
[3]
  IC50: 6.3 µM

## O=C(NN1C(=O)/C(=C/c2cn(-c3ccccc3)nc2-c2ccccc2)SC1=S)c1sc2ccccc2c1Cl [3-Chloro-N-{5-[(1,3-diphenyl-1H-pyrazol-4-yl)methylene]-4-oxo-2-thioxothiazolidin-3-yl}benzo[b]thiophene-2-carboxamide (5a)]
[1]
  IC50: 3.97 µM
[2]
  IC50: 1.49 µM
[3]
  IC50: 5.1 µM

## Cc1ccc(-c2cc(C(F)(F)F)nn2-c2ccc(S(N)(=O)=O)cc2)cc1 [Celecoxib]
[1]
  IC50: 6.87 µM

## O=C(NN1C(=O)CSC1=S)c1cc2ccccc2o1 [N-(4-Oxo-2-thioxothiazolidin-3-yl)benzofuran-2-carboxamide (9)]
[1]
  IC50: 5.92 µM
[2]
  IC50: 1.83 µM
[3]
  IC50: 6.8 µM

## O=C(NN1C(=O)/C(=C/c2ccccc2)SC1=S)c1sc2ccccc2c1Cl [N-(5-Benzylidene-4-oxo-2-thioxothiazolidin-3-yl)-3-chlorobenzo[b]thiophene-2-carboxamide (5d)]
[1]
  IC50: 8.74 µM
[2]
  IC50: 3.12 µM
[3]
  IC50: 10.6 µM

## O=C(NN1C(=O)/C(=C/c2cn(-c3ccccc3)nc2-c2ccc(Br)cc2)SC1=S)c1sc2ccccc2c1Cl [N-(5-{[3-(4-Bromophenyl)-1-phenyl-1H-pyrazol-4-yl]methylene}-4-oxo-2-thioxothiazolidin-3-yl)-3-chlorobenzo[b]thiophene-2-carboxamide (5c)]
[1]
  IC50: 9.51 µM
[2]
  IC50: 4.88 µM
[3]
  IC50: 12.4 µM

## O=C(NN1C(=O)/C(=C/c2cn(-c3ccccc3)nc2-c2ccc(Br)cc2)SC1=S)c1cc2ccccc2o1 [N-(5-{[3-(4-Bromophenyl)-1-phenyl-1H-pyrazol-4-yl]methylene}-4-oxo-2-thioxothiazolidin-3-yl)benzofuran-2-carboxamide (10c)]
[1]
  IC50: 10.2 µM
[2]
  IC50: 5.32 µM
[3]
  IC50: 13.4 µM

## COc1ccc(-c2nn(-c3ccccc3)cc2/C=C2\SC(=S)N(NC(=O)c3cc4ccccc4o3)C2=O)cc1 [N-(5-{[3-(4-Methoxyphenyl)-1-phenyl-1H-pyrazol-4-yl]methylene}-4-oxo-2-thioxothiazolidin-3-yl)benzofuran-2-carboxamide (10b)]
[1]
  IC50: 6.91 µM
[2]
  IC50: 2.74 µM
[3]
  IC50: 8.7 µM

## O=C(NN1C(=O)/C(=C/c2cn(-c3ccccc3)nc2-c2ccccc2)SC1=S)c1cc2ccccc2o1 [N-{5-[(1,3-Diphenyl-1H-pyrazol-4-yl)methylene]-4-oxo-2-thioxothiazolidin-3-yl}benzofuran2-carboxamide (10a)]
[1]
  IC50: 9.21 µM
[2]
  IC50: 4.81 µM
[3]
  IC50: 12.4 µM
